{"source": "patent US11918662B2", "about": "“Heterocyclic compounds and imaging agents for imaging huntingtin protein” (CHDI Foundation, Inc., priority 2020, dated 2024)", "note": "pIC50: −log10 of the molar value."}
{"biological_target": "T1, MBP-HTT(1-89)Q46-His(6×) (“Exon1-Q46”) protein aggregates (Homo sapiens, UniProt P42858, INS38QQQQQQQQQQQQQQQQQQQQQQQQQ)", "T1 construct": "MBP-HTT(1-89)Q46-His(6×); His(6×) (C); made in house", "T1 sequence (P42858 with tags, fused parts or gaps with the stated changes limits assumed)": "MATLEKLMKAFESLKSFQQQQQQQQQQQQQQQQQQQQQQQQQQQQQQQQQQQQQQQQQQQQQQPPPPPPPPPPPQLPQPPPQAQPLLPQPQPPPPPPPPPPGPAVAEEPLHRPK", "assay": "Exon1-Q46 Radioligand Binding Assay", "conditions": "not given"}
{"smiles": "CCC[CH2][Sn]([CH2]CCC)([CH2]CCC)[c]1ccc(NC(=O)CCn2c(=O)c3cnn(C)c3c3ccc(F)cc32)c(F)c1", "note": "[Example 24-1, 3-{7-Fluoro-1-methyl-4-oxo-1H,4H,5H-pyrazolo[4,3-c]quinolin-5-yl}-N-[2-fluoro-4-(tributylstannyl)phenyl]propanamide]", "pIC50": "> 7.00"}
{"smiles": "Cn1ncc2c(=O)n(CCC(=O)Nc3ccc(F)cc3F)c3c[c]([Sn]([CH3])([CH3])[CH3])ccc3c21", "note": "[Example 26-1, N-(2,4-difluorophenyl)-3-[1-methyl-4-oxo-7-(trimethylstannyl)-1H,4H,5H-pyrazolo [4,3-c]quinolin-5-yl]propanamide]", "pIC50": "> 7.00"}
{"biological_target": "T1, MBP-HTT(1-89)Q46-His(6×) (“Exon1-Q46”) protein aggregates", "assay": "Exon1-Q46 Radioligand Binding Assay", "conditions": "displacement of 0.3 nM [3H3-methyl]-5-((5-methoxypyridin-2-yl)methoxy)-2-(pyrazin-2-yl)benzo[d]oxazole from 1 μM aggregated Exon1-Q46, 60 minutes at 37° C.; read-out: Potency Range (IC50)"}
{"smiles": "Cn1ncc2c(=O)n(CCC(=O)Nc3ccc(F)cc3F)c3cc(F)c(F)cc3c21", "note": "[Example 21-1]", "pIC50": "> 7.00"}
{"smiles": "Cn1ncc2c(=O)n(CCC(=O)Nc3ccc(F)cc3F)c3ccc(F)cc3c21", "note": "[Example 21-2]", "pIC50": "> 7.00"}
{"smiles": "Cn1ncc2c(=O)n(CCC(=O)Nc3ccc(F)cc3F)c3cccc(F)c3c21", "note": "[Example 21-3]", "pIC50": "> 7.00"}
{"smiles": "Cn1ccc2c3ccc(F)cc3n(CCC(=O)Nc3ccc(F)cc3F)c(=O)c21", "note": "[Example 22-1, N-(2,4-Difluorophenyl)-3-{7-fluoro-3-methyl-4-oxo-3H,4H,5H-pyrrolo[2,3-c]quinolin-5-yl}propanamide]", "pIC50": "> 7.00"}
{"smiles": "O=C(CCCn1c(=O)c2cccn2c2ccc(F)cc21)N1CCOCC1", "note": "[Example 29-1]", "pIC50": "> 7.00"}
{"smiles": "CC1CC(C)CN(C(=O)CCCn2c(=O)c3cccn3c3ccccc32)C1", "note": "(centres unmarked) [Example 29-2]", "pIC50": "> 7.00"}
{"smiles": "O=C(Cn1c(=O)c2cccn2c2ccc(F)cc21)N1CCCCC1", "note": "[Example 29-3]", "pIC50": "> 7.00"}
{"smiles": "Cc1ccc(NC(=O)CCn2c(=O)c3cccn3c3ccccc32)cc1", "note": "[Example 29-4]", "pIC50": "> 7.00"}
{"smiles": "O=C(CCCn1c(=O)c2cccn2c2ccc(Br)cc21)N1CCCCC1", "note": "[Example 29-5]", "pIC50": "> 7.00"}
